The results in this text go back to publication PMC9332833 (Cancers, 2022).

Experiment [1] deals with CD34+/CD38+ cells from CML patients. Briefly: Annexin V-FITC/PI apoptosis in CD34+/CD38+ subpopulation. The class given is cell-based, human. The note with it: 2.5 or 5 µM, 24 h. The procedure: (§1) Pre-cultured cells were treated with BK124.1 or DMSO for 24 h. For purity analysis, cells were stained with anti-human CD34-APC antibody, anti-human CD38-PE (Biolegend, San Diego, CA, USA), and propidium iodide according to the manufacturers’ protocols. For apoptosis analysis, cells were additionally stained with Annexin V-FITC kit (BD, Franklin Lakes, NJ, USA) according to the manufacturer’s protocol. Appropriate isotype controls were included. Stained cells were immediately analyzed on a BD LSRFortessa flow cytometer with FlowJo software (BD, Franklin Lakes, NJ, USA), after exclusion of doublets. Purity was analyzed on live cells only, and apoptosis separately for each population of cells (CD34^+/CD38^+ or CD34^+/CD38^−).
(§2) […] Next, we isolated CD34+ cells (EasySep™ Human CD34 Positive Selection Kit II, StemCell Technologies, Vancouver, Canada), counted them and assessed viability with Muse Cell Analyzer (Merck Millipore, Burlington, MA, USA). […] The purity of the live CD34+ fraction was assessed by flow cytometry with anti-human CD34-APC antibody, compared with an appropriate isotype control (Biolegend, San Diego, CA, USA), and propidium iodide (Sigma-Aldrich, St. Louis, MO, USA). […]
(§3) […] In both cases stained cells were immediately analyzed on a BD LSRFortessa flow cytometer and analyzed with FlowJo software (BD, Franklin Lakes, NJ, USA). […]

Experiment [2] relates to CD34+/CD38- leukemia stem cells from CML patients. Briefly: Annexin V-FITC/PI apoptosis in CD34+/CD38- subpopulation. The note with it: 2.5 or 5 µM, within 24 h, 3 patients; dose dependent. The class given is cell-based, human. The procedure: as §1, §2, §3

As for `CCC12C(=O)C(CC)(C(c3ccccc3)=C1c1ccccc1)C1C(=O)N(CC(O)CNC(C)C)C(=O)C12` (centres unmarked) [BK124.1, 4-[2-hydroxy-3-(propan-2-ylamino)propyl]-1,7-diethyl-8,9-diphenyl-4-azatricyclo [5.2.1.02,6]dec-8-ene-3,5,10-trione], the “Apoptosis in CD34+/CD38+ cells compared with CD34+/CD38- cells” value in experiment [1] was “even higher apoptosis”. In addition, the “Apoptosis in CD34+/CD38- leukemia stem cells” value in experiment [2] is given as “induced apoptosis”.
